Consider 3 compounds from patent US20220009920A1 (GB005, Inc., priority 2020, published 2022).

Common to all, as to experiment: Large panel kinase profiling
Common to all, as to type: biochemical
Common to all, as to details: 1 μM test article, 1 mM ATP

For assay [1], the target named is T1, CAMK2D (Homo sapiens, UniProt Q13557).
T1 construct: AssayQuant Technologies, Inc. (ran the panel)
The method, boiled down: (§1)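 At 30° C., kinases turned over a CSox-Sensor peptide substrate with 1 mM ATP while 1 μM test article was present. Progress was followed by kinetic fluorescence readings.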

In assay [2] the target is T2, CSNK1G1/CK1G1 (Homo sapiens, UniProt Q9HCP0).
T2 construct: AssayQuant Technologies, Inc. (service laboratory)
T2 sequence (Q9HCP0 whole entry): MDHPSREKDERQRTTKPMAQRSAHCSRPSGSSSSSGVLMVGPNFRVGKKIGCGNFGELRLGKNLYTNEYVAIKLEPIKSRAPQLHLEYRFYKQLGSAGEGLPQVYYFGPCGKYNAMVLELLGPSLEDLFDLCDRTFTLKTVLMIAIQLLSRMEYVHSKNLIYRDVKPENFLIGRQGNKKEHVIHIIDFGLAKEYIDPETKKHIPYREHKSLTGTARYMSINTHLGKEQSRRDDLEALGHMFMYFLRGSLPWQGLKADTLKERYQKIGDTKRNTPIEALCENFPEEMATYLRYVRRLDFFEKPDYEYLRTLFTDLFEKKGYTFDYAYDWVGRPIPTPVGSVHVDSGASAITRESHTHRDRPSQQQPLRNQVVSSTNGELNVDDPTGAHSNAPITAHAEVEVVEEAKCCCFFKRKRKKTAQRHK
The method, boiled down: as §1

Assay [3] deals with IRAK1 (Homo sapiens, UniProt P51617). The method, boiled down: as §1
Sequence of IRAK1 (P51617 whole entry, species assumed): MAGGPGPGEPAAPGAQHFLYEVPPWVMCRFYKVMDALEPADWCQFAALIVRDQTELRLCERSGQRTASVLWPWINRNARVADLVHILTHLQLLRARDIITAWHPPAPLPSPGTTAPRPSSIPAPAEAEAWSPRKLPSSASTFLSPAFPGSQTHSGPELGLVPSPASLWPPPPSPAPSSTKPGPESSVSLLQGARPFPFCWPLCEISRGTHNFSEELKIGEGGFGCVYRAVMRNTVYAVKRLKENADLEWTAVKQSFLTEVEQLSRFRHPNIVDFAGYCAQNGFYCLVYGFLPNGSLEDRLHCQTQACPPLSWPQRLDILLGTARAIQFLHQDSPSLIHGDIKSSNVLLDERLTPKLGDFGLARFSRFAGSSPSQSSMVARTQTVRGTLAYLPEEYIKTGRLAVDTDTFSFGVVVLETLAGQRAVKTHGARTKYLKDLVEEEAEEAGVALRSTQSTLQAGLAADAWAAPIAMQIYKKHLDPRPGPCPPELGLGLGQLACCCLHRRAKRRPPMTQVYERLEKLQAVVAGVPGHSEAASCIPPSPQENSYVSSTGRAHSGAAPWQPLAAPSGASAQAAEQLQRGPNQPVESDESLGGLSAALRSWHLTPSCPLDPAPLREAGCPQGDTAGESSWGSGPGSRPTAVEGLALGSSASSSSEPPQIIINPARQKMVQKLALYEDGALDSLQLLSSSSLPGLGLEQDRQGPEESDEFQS
Assay [4] concerns the target T3, LATS1 (Homo sapiens, UniProt O95835).
T3 sequence (O95835 1-1130): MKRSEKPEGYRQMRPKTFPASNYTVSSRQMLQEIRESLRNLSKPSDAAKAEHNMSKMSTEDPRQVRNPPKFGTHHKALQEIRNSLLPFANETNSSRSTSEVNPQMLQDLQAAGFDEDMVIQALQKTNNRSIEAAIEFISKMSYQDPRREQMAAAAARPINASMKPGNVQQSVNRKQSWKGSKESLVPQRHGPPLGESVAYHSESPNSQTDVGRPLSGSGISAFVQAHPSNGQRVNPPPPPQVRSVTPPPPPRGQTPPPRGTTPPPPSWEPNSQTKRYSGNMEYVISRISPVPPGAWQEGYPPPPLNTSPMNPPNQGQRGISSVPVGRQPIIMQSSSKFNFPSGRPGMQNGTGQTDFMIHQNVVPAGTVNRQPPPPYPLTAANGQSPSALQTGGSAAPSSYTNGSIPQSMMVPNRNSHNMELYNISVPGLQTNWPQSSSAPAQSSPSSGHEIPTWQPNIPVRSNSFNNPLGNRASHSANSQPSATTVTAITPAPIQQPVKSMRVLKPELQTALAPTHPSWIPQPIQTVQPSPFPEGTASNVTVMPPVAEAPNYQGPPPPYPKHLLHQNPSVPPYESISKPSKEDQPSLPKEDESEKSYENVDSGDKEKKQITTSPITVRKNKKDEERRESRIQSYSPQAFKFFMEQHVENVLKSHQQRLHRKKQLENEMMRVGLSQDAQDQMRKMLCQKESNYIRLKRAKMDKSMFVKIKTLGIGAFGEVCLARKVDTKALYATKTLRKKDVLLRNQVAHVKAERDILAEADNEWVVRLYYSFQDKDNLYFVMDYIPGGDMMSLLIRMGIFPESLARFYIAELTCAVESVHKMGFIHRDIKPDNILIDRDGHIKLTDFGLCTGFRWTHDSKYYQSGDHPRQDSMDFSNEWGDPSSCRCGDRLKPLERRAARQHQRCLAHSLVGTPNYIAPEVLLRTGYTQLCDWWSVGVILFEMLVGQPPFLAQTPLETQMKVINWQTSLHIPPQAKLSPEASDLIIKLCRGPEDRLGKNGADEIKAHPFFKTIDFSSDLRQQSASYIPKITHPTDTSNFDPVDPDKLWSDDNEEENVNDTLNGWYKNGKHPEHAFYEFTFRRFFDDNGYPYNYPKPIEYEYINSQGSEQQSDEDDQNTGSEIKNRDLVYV
The method, boiled down: as §1

Assay [5] has as its target T4, NTRK2/TRKB (Homo sapiens, UniProt Q16620).
T4 construct: AssayQuant Technologies, Inc. (assay service)
The method, boiled down: as §1

Assay [6] addresses PAK2 (Homo sapiens, UniProt Q13177). The method, boiled down:
as §1

The target of assay [7] is T5, PRKD2 (Homo sapiens, UniProt Q9BZL6).
T5 sequence (Q9BZL6 1-878): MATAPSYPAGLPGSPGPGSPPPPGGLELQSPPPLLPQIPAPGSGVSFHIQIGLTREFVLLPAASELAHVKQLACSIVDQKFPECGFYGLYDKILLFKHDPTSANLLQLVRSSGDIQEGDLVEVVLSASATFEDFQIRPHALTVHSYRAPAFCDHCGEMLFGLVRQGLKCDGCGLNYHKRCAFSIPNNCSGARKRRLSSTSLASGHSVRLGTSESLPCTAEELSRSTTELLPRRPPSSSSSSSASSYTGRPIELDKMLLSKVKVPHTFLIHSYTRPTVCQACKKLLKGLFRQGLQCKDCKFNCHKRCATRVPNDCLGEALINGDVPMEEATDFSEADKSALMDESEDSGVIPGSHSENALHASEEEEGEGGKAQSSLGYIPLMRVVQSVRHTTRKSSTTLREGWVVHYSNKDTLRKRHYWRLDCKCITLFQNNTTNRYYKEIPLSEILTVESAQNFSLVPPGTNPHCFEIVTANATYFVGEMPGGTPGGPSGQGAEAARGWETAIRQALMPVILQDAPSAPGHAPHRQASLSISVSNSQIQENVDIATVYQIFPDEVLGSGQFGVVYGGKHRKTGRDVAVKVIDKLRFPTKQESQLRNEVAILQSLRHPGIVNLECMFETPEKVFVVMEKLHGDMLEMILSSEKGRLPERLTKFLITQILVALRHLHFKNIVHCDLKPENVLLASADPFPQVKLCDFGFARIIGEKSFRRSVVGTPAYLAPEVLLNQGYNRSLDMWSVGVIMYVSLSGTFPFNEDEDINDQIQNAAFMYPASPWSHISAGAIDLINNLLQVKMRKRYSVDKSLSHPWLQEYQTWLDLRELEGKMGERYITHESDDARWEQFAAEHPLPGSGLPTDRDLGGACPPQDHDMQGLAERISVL
The method, boiled down:
as §1

For assay [8], the target named is T6, RPS6KA6/RSK4 (Homo sapiens, UniProt Q9UK32).
T6 construct: AssayQuant Technologies, Inc. (contract assay)
T6 sequence (Q9UK32 whole entry): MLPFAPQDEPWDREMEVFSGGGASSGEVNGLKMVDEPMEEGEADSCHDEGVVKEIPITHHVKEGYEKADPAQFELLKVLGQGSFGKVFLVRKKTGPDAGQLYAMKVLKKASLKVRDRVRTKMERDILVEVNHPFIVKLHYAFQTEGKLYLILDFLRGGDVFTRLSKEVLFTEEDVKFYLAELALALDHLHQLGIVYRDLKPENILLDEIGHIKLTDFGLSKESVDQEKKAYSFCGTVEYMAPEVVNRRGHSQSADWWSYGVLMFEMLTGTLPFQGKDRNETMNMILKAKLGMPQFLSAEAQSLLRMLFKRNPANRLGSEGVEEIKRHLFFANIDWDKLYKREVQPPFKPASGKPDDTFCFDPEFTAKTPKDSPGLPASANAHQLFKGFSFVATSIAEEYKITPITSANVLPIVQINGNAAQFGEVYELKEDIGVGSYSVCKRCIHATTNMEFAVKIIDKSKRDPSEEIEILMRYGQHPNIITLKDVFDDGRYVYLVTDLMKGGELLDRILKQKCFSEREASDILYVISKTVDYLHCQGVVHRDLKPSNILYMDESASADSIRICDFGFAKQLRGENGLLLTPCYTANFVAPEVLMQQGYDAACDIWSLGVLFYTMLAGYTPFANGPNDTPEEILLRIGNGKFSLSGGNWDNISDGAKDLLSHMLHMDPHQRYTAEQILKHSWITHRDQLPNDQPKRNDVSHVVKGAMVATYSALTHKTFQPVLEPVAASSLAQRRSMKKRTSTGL
The method, boiled down:
as §1

T1 sequence (Q13557 whole entry, species assumed): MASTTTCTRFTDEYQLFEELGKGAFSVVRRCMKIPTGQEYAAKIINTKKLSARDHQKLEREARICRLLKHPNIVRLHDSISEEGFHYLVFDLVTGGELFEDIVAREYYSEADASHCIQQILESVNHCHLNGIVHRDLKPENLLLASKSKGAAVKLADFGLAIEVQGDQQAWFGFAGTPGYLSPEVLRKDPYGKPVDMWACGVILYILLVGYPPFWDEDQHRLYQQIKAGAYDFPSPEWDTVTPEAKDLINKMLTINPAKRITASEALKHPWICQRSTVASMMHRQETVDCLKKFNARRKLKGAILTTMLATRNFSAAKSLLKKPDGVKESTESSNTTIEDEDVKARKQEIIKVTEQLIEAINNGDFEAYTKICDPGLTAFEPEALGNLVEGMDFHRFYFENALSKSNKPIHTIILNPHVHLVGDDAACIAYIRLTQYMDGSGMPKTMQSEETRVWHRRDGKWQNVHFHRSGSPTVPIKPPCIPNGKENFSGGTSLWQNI
T4 sequence (Q16620 32-822): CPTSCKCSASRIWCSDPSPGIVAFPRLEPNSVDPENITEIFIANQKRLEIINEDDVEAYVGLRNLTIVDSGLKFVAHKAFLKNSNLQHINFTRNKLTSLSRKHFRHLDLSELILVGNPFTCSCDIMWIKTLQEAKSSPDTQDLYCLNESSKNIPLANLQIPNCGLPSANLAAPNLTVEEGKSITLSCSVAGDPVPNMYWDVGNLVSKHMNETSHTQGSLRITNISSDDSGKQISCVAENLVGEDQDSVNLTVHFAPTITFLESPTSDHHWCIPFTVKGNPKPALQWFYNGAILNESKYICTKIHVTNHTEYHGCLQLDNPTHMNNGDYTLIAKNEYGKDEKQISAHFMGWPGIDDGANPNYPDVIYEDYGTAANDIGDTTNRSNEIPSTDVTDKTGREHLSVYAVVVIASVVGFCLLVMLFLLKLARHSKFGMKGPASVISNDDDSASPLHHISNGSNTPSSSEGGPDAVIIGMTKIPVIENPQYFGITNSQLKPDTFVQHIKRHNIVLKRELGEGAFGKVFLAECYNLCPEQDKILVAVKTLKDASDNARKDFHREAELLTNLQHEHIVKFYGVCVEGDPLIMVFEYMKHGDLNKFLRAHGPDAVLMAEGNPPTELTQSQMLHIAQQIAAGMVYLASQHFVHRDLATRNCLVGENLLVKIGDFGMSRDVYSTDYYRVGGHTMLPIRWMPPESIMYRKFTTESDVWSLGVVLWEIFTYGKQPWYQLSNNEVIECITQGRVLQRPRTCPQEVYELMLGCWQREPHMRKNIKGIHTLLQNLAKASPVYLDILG
Sequence of PAK2 (Q13177 whole entry, species assumed): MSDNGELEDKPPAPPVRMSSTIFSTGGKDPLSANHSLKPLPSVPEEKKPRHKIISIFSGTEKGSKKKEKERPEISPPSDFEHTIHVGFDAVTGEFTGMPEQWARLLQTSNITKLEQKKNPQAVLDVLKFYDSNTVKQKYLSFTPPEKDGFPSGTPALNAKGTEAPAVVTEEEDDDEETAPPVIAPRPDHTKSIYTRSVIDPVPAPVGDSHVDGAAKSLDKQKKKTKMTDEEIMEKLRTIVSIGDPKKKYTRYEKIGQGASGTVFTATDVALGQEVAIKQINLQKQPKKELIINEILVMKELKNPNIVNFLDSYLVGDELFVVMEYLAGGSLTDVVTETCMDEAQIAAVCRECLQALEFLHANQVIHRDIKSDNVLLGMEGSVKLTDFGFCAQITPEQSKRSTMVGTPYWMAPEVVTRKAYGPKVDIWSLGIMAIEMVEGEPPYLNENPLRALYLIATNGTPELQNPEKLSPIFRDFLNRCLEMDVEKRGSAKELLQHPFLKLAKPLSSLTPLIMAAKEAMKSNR

For `C=CC(=O)N1CCC[C@@H](c2c(F)cc(C(N)=O)c3[nH]c4c(c23)CCC4)C1` [Compound 10-2, (S)-8-(1-acryloylpiperidin-3-yl)-7-fluoro-1,2,3,4-tetrahydrocyclo-penta[b]indole-5-carboxamide], the inhibition at 1 µM was -10.7% in assay [1]; -2.8% in assay [2]; 7.8% in assay [3]; 22.9% in assay [4]; 19.7% in assay [5]; 7% in assay [6]. Further, the inhibition at 1 µM in assay [7] was -12.1%; in assay [8] it was 0.3%.
For the compound `C=CC(=O)N1CCCC(c2c(F)cc(C(N)=O)c3[nH]c4c(c23)CCCCC4)C1` (single isomer, unassigned) [Compound 5-6], the inhibition at 1 µM is 1.1% in assay [1]; 17.2% in assay [2]; -28.6% in assay [3]; -24.7% in assay [4]; -20.9% in assay [5]; 13.9% in assay [6]. Further, the inhibition at 1 µM in assay [7] was -14.2%; in assay [8] it was -5.8%.
For the compound `C=CC(=O)N1CCC[C@@H](c2c(F)cc(C(N)=O)c3[nH]c4c(c23)CC2(CC4)CC2)C1` [Compound 6-2, (S)-5-(1-acryloylpiperidin-3-yl)-6-fluoro-1,2,4,9-tetrahydrospiro[carbazole-3,1′-cyclopropane]-8-carboxamide], the inhibition at 1 µM in assay [1] amounted to 8.4%; in assay [2] it was 14%; in assay [3] it was 5.6%; in assay [4], 10.1%; in assay [5], 13.1%; in assay [6], 1.3%. In addition, the inhibition at 1 µM in assay [7] is -32.9%; in assay [8], -14.8%.
